Source: ChEMBL document CHEMBL4665746, “Viennamycins: Lipopeptides Produced by a Streptomyces sp” (J Nat Prod, 2020)
Activity calls are given as the source filed them.

Experiments:
[1] = tested on: Bacillus subtilis; test: Antimicrobial activity against Bacillus subtilis in presence of >= 5 mM Zn2+; type: functional, organism-based
[2] = tested on: Bacillus subtilis; test: Antimicrobial activity against Bacillus subtilis in presence of >= 5 mM Mg2+; type: functional, organism-based
[3] = tested on: Bacillus subtilis; test: Antimicrobial activity against Bacillus subtilis in presence of >= 5 mM Mn2+; type: functional, organism-based
[4] = tested on: Aspergillus niger; test: Antimicrobial activity against Aspergillus niger CBS 110271; type: functional, organism-based
[5] = tested on: Bacillus subtilis; test: Antimicrobial activity against Bacillus subtilis in presence of >= 5 mM Ca2+; type: functional, organism-based
[6] = tested on: Aspergillus niger; test: Antimicrobial activity against Aspergillus niger CBS 110271 in presence of >= 5 uM Ca2+; type: functional, organism-based
[7] = tested on: Fusarium graminearum; test: Antimicrobial activity against Fusarium graminearum CBS 112.30; type: functional, organism-based
[8] = tested on: Fusarium graminearum; test: Antimicrobial activity against Fusarium graminearum CBS 112.30 in presence of >= 5 uM Ca2+; type: functional, organism-based
[9] = tested on: Saccharomyces cerevisiae; test: Antimicrobial activity against Saccharomyces cerevisiae BY4742 in presence of >= 5 uM Ca2+; type: functional, organism-based
[10] = tested on: Saccharomyces cerevisiae; test: Antimicrobial activity against Saccharomyces cerevisiae BY4742; type: functional, organism-based
[11] = tested on: Acinetobacter baumannii; test: Antimicrobial activity against Acinetobacter baumannii 1710; type: functional, organism-based
[12] = tested on: Acinetobacter baumannii; test: Antimicrobial activity against Acinetobacter baumannii 1799; type: functional, organism-based
[13] = tested on: Acinetobacter baumannii; test: Antimicrobial activity against Acinetobacter baumannii 1710 in presence of >= 5 uM Ca2+; type: functional, organism-based
[14] = tested on: Acinetobacter baumannii; test: Antimicrobial activity against Acinetobacter baumannii 1799 in presence of >= 5 uM Ca2+; type: functional, organism-based
[15] = tested on: Acinetobacter baumannii; test: Antimicrobial activity against Acinetobacter baumannii MB5973; type: functional, organism-based
[16] = tested on: Streptomyces coelicolor; test: Antimicrobial activity against Streptomyces coelicolor A3 in presence of >= 5 uM Ca2+; type: functional, organism-based
[17] = tested on: Acinetobacter baumannii; test: Antimicrobial activity against Acinetobacter baumannii MB5973 in presence of >= 5 uM Ca2+; type: functional, organism-based
[18] = tested on: Streptomyces coelicolor; test: Antimicrobial activity against Streptomyces coelicolor A3; type: functional, organism-based
[19] = tested on: Streptococcus pneumoniae; test: Antimicrobial activity against Streptococcus pneumoniae ATCC 46619; type: functional, organism-based
[20] = tested on: Staphylococcus epidermidis; test: Antimicrobial activity against Staphylococcus epidermidis; type: functional, organism-based
[21] = tested on: Streptococcus pneumoniae; test: Antimicrobial activity against Streptococcus pneumoniae ATCC 46619 in presence of >= 5 uM Ca2+; type: functional, organism-based
[22] = tested on: Staphylococcus epidermidis; test: Antimicrobial activity against Staphylococcus epidermidis in presence of >= 5 uM Ca2+; type: functional, organism-based
[23] = tested on: Staphylococcus aureus; test: Antimicrobial activity against Staphylococcus aureus MB2865; type: functional, organism-based
[24] = tested on: Staphylococcus aureus; test: Antimicrobial activity against Staphylococcus aureus MB2865 in presence of >= 5 uM Ca2+; type: functional, organism-based
[25] = tested on: Staphylococcus aureus; test: Antimicrobial activity against methicillin-sensitive Staphylococcus aureus ATCC 29213; type: functional, organism-based
[26] = tested on: Staphylococcus aureus; test: Antimicrobial activity against Staphylococcus aureus 1415-10; type: functional, organism-based
[27] = tested on: Staphylococcus aureus; test: Antimicrobial activity against methicillin-sensitive Staphylococcus aureus ATCC 29213 in presence of >= 5 uM Ca2+; type: functional, organism-based
[28] = tested on: Staphylococcus aureus; test: Antimicrobial activity against Staphylococcus aureus 1415-10 in presence of >= 5 uM Ca2+; type: functional, organism-based
[29] = tested on: Staphylococcus aureus; test: Antimicrobial activity against methicillin-resistant Staphylococcus aureus MB5393; type: functional, organism-based
[30] = tested on: Staphylococcus aureus; test: Antimicrobial activity against methicillin-resistant Staphylococcus aureus MB5393 in presence of >= 5 uM Ca2+; type: functional, organism-based
[31] = tested on: MIA PaCa-2; test: Cytotoxicity against human MIA PaCa-2 cells assessed as reduction in cell viability; type: functional, cell-based
[32] = tested on: A2058; test: Cytotoxicity against human A2058 cells assessed as reduction in cell viability; type: functional, cell-based
[33] = tested on: A549; test: Cytotoxicity against human A549 cells assessed as reduction in cell viability; type: functional, cell-based
[34] = tested on: HepG2; test: Cytotoxicity against human HepG2 cells assessed as reduction in cell viability; type: functional, cell-based
[35] = tested on: MIA PaCa-2; test: Cytotoxicity against human MIA PaCa-2 cells assessed as reduction in cell viability in presence of >= 5 uM Ca2+; type: functional, cell-based
[36] = tested on: A2058; test: Cytotoxicity against human A2058 cells assessed as reduction in cell viability in presence of >= 5 uM Ca2+; type: functional, cell-based
[37] = tested on: A549; test: Cytotoxicity against human A549 cells assessed as reduction in cell viability in presence of >= 5 uM Ca2+; type: functional, cell-based
[38] = tested on: HepG2; test: Cytotoxicity against human HepG2 cells assessed as reduction in cell viability in presence of >= 5 uM Ca2+; type: functional, cell-based

Measured: Activity

CC[C@H](C)[C@H](NC(=O)[C@H](CC(N)=O)NC(=O)/C=C\C=C\CCC(C)C)C(=O)N[C@H](Cc1ccccc1)C(=O)N[C@H](CC(=O)O)C(=O)N[C@@H](CC(=O)O)C(=O)N[C@@H]1C(=O)N(C)[C@H](C(C)C)C(=O)NCC(=O)NCC(=O)N[C@H](CCC(=O)O)C(=O)N[C@@H](C)C(=O)N2CCC[C@H]2C(=O)O[C@@H]1C
inactive: all assays above

CC[C@H](C)[C@H](NC(=O)[C@H](CC(N)=O)NC(=O)/C=C\C=C\CCC(C)C)C(=O)N[C@H](Cc1ccccc1)C(=O)N[C@H](CS(=O)(=O)O)C(=O)N[C@@H](CC(=O)O)C(=O)N[C@@H]1C(=O)N(C)[C@H](C(C)C)C(=O)NCC(=O)NCC(=O)N[C@H](CCC(=O)O)C(=O)N[C@@H](C)C(=O)N2CCC[C@H]2C(=O)O[C@@H]1C
inactive: all assays above
